From article PMC10227015, “From a drug repositioning to a structure-based drug design approach to tackle acute lymphoblastic leukemia” (Nature Communications, 2023) come the findings set out here.

Data set [1] concerns CCRF-CEM-CRISPR-sgRNA-dCK− cell line. The data set can be described thus: Proliferation of CCRF-CEM CRISPR-Cas9 cell line deficient for dCK. The settings on record: dT 200 µM, dC 1 µM. Type of data set: cell-based, human. As to the method:
CCFR-CEM cells (obtained from O. Hermine laboratory, Paris, France) were grown at 37 °C in RPMI 1640 with L-glutamine, supplemented with 10% heat-inactivated fetal calf serum. The experiments were carried out on 96-well plates under the following conditions: 14,000 cells per well, RPMI 1640 culture medium supplemented with 10% heat-inactivated fetal calf serum, 200 μM of dT, 1 μM of dC and a range of dilutions of each compound ranging from 40 μM to 10 pM, depending on the activity of the compounds (final 0.2% DMSO). Cells were incubated for 72 h under these different conditions and finally, incubated with 10 µl/well of CellTiter-Blue reagent (Promega) for 4 h at 37 °C. The amount of reduced dye formed by metabolically active cells was quantified by its fluorescence measured at 560 nm (excitation) and 590 nm (emission) in a microplate reader (CLARIOstar, BMG Labtech). A blank well without cells was used as a background control. Each experiment was performed at least three times (with technical triplicates) and data are presented as the mean ± SD.
Stable CCRF-CEM-CRISPR-sgRNA-dCK^− cell line was established by lentiviral transduction using purified lentiviral particles (Horizon Discovery) and blasticidin selection (10 µg/ml). […]

Data set [2] concerns NOD-SCID-IL2Rγc null (NSG) mice. The data set can be described thus: In vivo toxicity in NSG mice, 2 weeks, with and without dT. The settings on record: mouse models, 80 mg/kg twice/day. As to the method:
To evaluate the in vivo toxicity selected compounds were injected by intraperitoneal (IP) route to 7 weeks-old male Swiss mice (n = 2) at 10, 20, 40, 50, or 80 mg/kg by unique injection. […] Compounds were administered in their hydrochloride salt forms. Mice were then observed closely for the next one hour, then every hour for 8 h. Observations were continued for 72 h for signs of pain or toxicity such as change in the behavior and in the activity in the cage (decreased locomotion) or change in the appearance (curved back, eyes half-closed, bristle hair, hips hollowed out). In vivo toxicity of compound OR0642 at 40 and 80 mg/kg was also assessed in the NOD-SCID-IL2Rγc null (NSG) mice model for 2 weeks in the presence and absence of dT to confirm the safety of the compound. […]. Blood samples were collected and spun at 10,000 × g prior to collecting the plasma supernatants. All plasma samples were frozen at −80 °C before sample processing. 13 μl of each plasma sample was mixed with 33 μl of acetonitrile to precipitate proteins and extract the compound. […] Supernatants were transferred to a microplate to be analyzed by LC–MS/MS. All samples were analyzed with a UHPLC coupled to a Shimadzu LC-MS 8030 triple quadrupole. The solutions of a standard range, prepared with plasma from untreated mice, were analyzed in the same series of injections.

Data set [3] has as its system UPNT525 patient-derived xenograft. The data set can be described thus: T-ALL PDX mouse model UPNT525. Type of data set: in vivo. Also on record: hCD45+ populations determined by flux cytometry at day 19: unit not given here. As to the method: Temperature was maintained between 20 and 24 °C and the hygrometry between 40 and 60%. Sex was not considered in the study design and studies were realized in male mice, as toxicity and pharmacokinetics were performed previously in male mice. […] OR0642 was administered in its hydrochloride salt form (OR0642-HCl). Drug administration protocol is detailed in Fig. 4a. […] Patient-derived xenograft was generated from a primary-T-ALL (UPNT525) sample[28],[29]. Briefly, we injected 1,000,000 cells in 100 μl of PBS by intravenous (IV) retro orbital injection in NSG mice. […] Drug administration protocol is detailed in Fig. 5d. Disease propagation was monitored at day 19 by hCD45 detection in peripheral blood. […] Figures exemplifying the gating strategy are provided in the Supplementary Information (Supplementary Figs. 32 and 33).

The subject of data set [4] is PDX UPNT885. Put plainly: Ex vivo testing on PDX samples (viability, flow cytometry, 72 h). Format: cell-based, human. An excerpt: (§1) Bone marrow-infiltrating blasts from terminally mice bearing PDX as stated above were collected as established before. Extensive analysis (immunophenotype and molecular analysis) of matched primary and PDX samples used in the study are shown in Supplementary Table 7, showing that they remain stable. Briefly, after euthanasia, bone marrows from tibiae, hips, femurs, and vertebrae were isolated and blasts collected for subsequent ex vivo experiments. All samples used contained ≥90% blasts as determined by flow cytometry. For the cytotoxic evaluation of OR0642, blasts were then stained with CellTraceTM Violet (CTV, Thermo Fisher Scientific, C34557) prior seeding at 10,000 cells into 96-well plates under normal conditions or pre-plated with OP9-DL1 cells. Cells were cultured in RPMI 1640 supplemented with 20% fetal bovine serum, 50 µg/ml streptomycin, 50 UI penicillin, 4 mM L-glutamine, and a cocktail of human cytokines as previously established (50 ng/ml human stem cell factor, 20 ng/ml hFLT3-L, 10 ng/ml hIL-7 and 20 nM insulin (Miltenyi Biotec))[28]. […] Rescue by dC supplementation (1 µM) was also evaluated. OR0642 was then tested alone, or combined with dT or dT + dC at two concentrations (0.25 and 0.5 µM). Cell viability was evaluated by flow cytometry 72 h post-treatment. Proliferation indexes were calculated using the detection of CTV in the control replicates (DMSO) and the proliferation modeling tool of FlowJo™ Software 10.7.1 (BD Life Sciences). A control peak of undivided CTV-stained cells was systematically used to set the undivided fraction.

Data set [5] concerns PDX UPNTAGG. Described as above. Type of data set: cell-based, human.
Source text: as §1

Setting [6] is: PDX mouse model UPNT525, dT 1,5 g/Kg, individual mice.

“And” between values parts separate entries of the source, which are not always exact repeats. Equal entries are not always repeated.

Turning to `CCCN(c1nc(-c2nc(N)cc(N)n2)cs1)c1cc(-c2ccc(S(=O)(=O)N3CCN(C)CC3)cc2C(F)(F)F)ccc1C` [OR0642], the “effect on cell proliferation” value in data set [1] is recorded as “did not affect cell proliferation”. Also, the in vivo tolerance result in data set [2] is listed as “well tolerated”.

For `Cc1cn([C@H]2C[C@H](O)[C@@H](CO)O2)c(=O)[nH]c1=O` [dT, thymidine], in data set [3] (setting [6]), the Survival days was 26 days and 38 days and 42 days. The “hCD45+ populations determined by flux cytometry at day 19” value in data set [3] (setting [6]) was 164 and 330 and 108 and 177 and 168 and 318. In data set [3] (dT 1.5 g/kg, OR0642 40 mg/kg IP BID 5 days a week), this molecule yielded a median survival of 38 days. Also, in data set [3] (day 19), the “effect on disease progression” value is “significant decrease in disease progression”. Further, the viability at 12 µM in data set [4] (Homo sapiens, UPNT885, dT 12 µM, read-out: Cell viability, Mean (% viab)) came to 100%; in data set [5] (Homo sapiens, UPNTAGG, dT 12 µM, read-out: Cell viability, Mean (% viab)), 100%. Further, the viability at 37 µM was 85.3% in data set [4] (Homo sapiens, UPNT885, dT 37 µM, read-out: Cell viability, Mean (% viab)) and 87.6% in data set [5] (Homo sapiens, UPNTAGG, dT 37 µM, read-out: Cell viability, Mean (% viab)). The viability at 111 µM is 65.1% in data set [4] (Homo sapiens, UPNT885, dT 111 µM, read-out: Cell viability, Mean (% viab)) and 82.2% in data set [5] (Homo sapiens, UPNTAGG, dT 111 µM, read-out: Cell viability, Mean (% viab)). Besides, the viability at 333 µM in data set [4] (Homo sapiens, UPNT885, dT 333 µM, read-out: Cell viability, Mean (% viab)) amounted to 49.5%; in data set [5] (Homo sapiens, UPNTAGG, dT 333 µM, read-out: Cell viability, Mean (% viab)), 73.3%. The viability at 1000 µM in data set [4] (Homo sapiens, UPNT885, dT 1000 µM, read-out: Cell viability, Mean (% viab)) amounted to 44.3%; in data set [5] (Homo sapiens, UPNTAGG, dT 1000 µM, read-out: Cell viability, Mean (% viab)), 65.7%. Moreover, the viability at 3000 µM was 39.5% in data set [4] (Homo sapiens, UPNT885, dT 3000 µM, read-out: Cell viability, Mean (% viab)) and 58.6% in data set [5] (Homo sapiens, UPNTAGG, dT 3000 µM, read-out: Cell viability, Mean (% viab)). Moreover, the “Response at dT100 µM” value is 49 in data set [4] (PDX 885, dT 100 µM) and 38 in data set [5] (PDX AGG, dT 100 µM).

As usually defined, the viability is a read-out of living cells in per cent, often relative to untreated cells.
